Molecular target: T1, FAAH (Rattus norvegicus, UniProt P97612)
T1 construct: For the assay of FAAH activity in rat brain membrane (RBM) homogenates; tissue Charles River (animals); host or cells: rat whole brain, membrane fraction
T1 sequence (P97612 1-579): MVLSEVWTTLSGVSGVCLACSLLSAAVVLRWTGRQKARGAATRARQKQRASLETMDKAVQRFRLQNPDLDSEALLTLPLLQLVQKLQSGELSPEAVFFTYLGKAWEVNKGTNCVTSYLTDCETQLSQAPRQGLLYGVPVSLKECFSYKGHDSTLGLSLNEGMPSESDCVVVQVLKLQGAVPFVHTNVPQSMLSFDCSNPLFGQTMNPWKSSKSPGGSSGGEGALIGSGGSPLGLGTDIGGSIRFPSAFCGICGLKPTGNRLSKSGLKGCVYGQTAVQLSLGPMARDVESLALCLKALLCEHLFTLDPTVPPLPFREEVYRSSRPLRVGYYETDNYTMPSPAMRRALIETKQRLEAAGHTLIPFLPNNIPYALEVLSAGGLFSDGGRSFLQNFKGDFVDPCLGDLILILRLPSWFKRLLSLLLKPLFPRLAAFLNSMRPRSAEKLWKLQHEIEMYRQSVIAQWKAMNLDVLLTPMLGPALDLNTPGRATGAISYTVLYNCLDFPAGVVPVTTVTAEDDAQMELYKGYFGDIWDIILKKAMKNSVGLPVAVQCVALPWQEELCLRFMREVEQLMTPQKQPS
Assay: FAAH inhibition, rat brain membrane homogenate assay
Assay type: biochemical
Conditions: rat brain homogenate; average activity; read-out: Rat Brain Extract FAAH IC50
Method: Adult rats (Charles River CD strain, female, 200 g) were anaesthetized with isofluorane and rapidly decapitated. Each brain was quickly removed and chilled in tubes (3 brains per tube) on ice. About 25 mL of “homogenization buffer” (20 mM HEPES buffer, pH 7.0, with 1 mM MgCl2) was added to 15 to 20 g of brain. The brains were homogenized on ice for 1 minute using an Omni GLH homogenizer (Omni International, Marietta, Ga.). The homogenates were then transferred to three centrifuge tubes and centrifuged at 36,500 g for 20 minutes at 4° C. The supernatant was discarded and each pellet was re-suspended in 25 mL homogenization buffer. The re-suspended material was again centrifuged (36,500 g, 20 minutes at 4° C.). Pellets were combined by re-suspension in 10 mL of homogenization buffer and incubated in a 37° C. water bath for 15 minutes. The tubes were then placed on ice for 5 minutes followed by centrifugation at 36,500 g for 20 minutes at 4° C. The supernatant was discarded and the membrane pellets were then re-suspended in 40 mL of “re-suspension buffer” (50 mM Tris-HCl buffer, pH 7.4, containing 1 mM EDTA and 3 mM MgCl2). A Bradford Protein assay was performed to determine protein concentration. The protein was aliquotted into screw cap Cryo tubes each containing −400 μL, flash-frozen in liquid nitrogen and stored at −80° C. until used for the assay. A similar protocol was used to obtain brain membrane homogenates from mice
FAAH activity was assayed in the respective homogenates described herein (Rat brain, Mouse brain or Human brain) with certain of the exemplary compounds described above using a modification of the method of Omeir et al. (1995 Life Sci. 56:1999) and Fowler et al. (1997 J. Pharmacol. Exp. Ther. 283:729). For the assay of FAAH activity in rat brain membrane (RBM) homogenates, RBM homogenates (7 μg protein in 20 μL final volume of 10 mM Tris pH 6.5) were mixed with 180 μL of a mixture of the following: […] unlabelled anandamide (AEA), 0.03 Ci radio labeled anandamide [ethanolamine 1-^3H](40-60 Ci/mmol; product number ART-626, American Radiolabelled Chemicals, St. Louis, Mo.), 1 mg/mL Bovine Serum Albumin (fatty acid-free BSA, electrophoresis grade, Sigma, St. Louis, Mo.), 10 mM Tris-HCl (pH 6.5), and 1 mM EDTA in the presence and absence of test compounds (vehicle was DMSO at a final concentration of 1%) and incubated for 10 minutes at 37° C. Samples were placed on ice to terminate the reactions.
The ^3H-ethanolamine product and un-reacted ^3H-anandamide substrate were then separated by either: (1) using chloroform/methanol extraction or (2) passing the reaction mixture through a glass fiber filter containing activated charcoal. Samples were extracted with chloroform/methanol by adding 0.4 mL of chloroform/methanol (1:1 v/v), vigorously mixing the samples, and separating the aqueous and organic phases by centrifugation. Radioactivity (corresponding to FAAH-catalyzed breakdown of ^3H-anandamide) found in aliquots (0.2 mL) of the aqueous phase was determined by liquid scintillation counting with quench correction. IC50 values were determined as described by Jonsson et al. (2001 Br. J Pharmacol. 133:1263). Alternatively, reactions were purified using a modification of the solid-phase extraction method described by Wilson et al (2003 Anal. Biochem. 318: 270). This method was modified as follows: after reactions were incubated at 37° C. for 10 minutes and chilled on ice, the reaction mixtures were acidified by adding 10 μL of sodium phosphate solution[0.5M (pH 2.0)]. Next, 90 μL aliquots of the acidified reaction mixtures were applied to activated charcoal (that had been previously washed with methanol as described by Wilson et al. (supra)) containing 80 μL of water on top of a glass fiber filter, centrifuged, and the radioactivity in the eluate was counted as described previously by Wilson et al. (supra). […]

Question: `COc1cc(NC(=O)C(=O)c2c(C)n(Cc3ccc(Cl)cc3)c3ccc(OC(C)=O)cc23)ccn1` [Compound 1, 1-(4-chlorobenzyl)-3-(2-(2-methoxypyridin-4-ylamino)-2-oxoacetyl)-2-methyl-1H-indol-5-yl acetate] was tested. Which IC50 did it give?
Answer: The IC50 was under 100 nM.

Question: `COc1cc(NC(=O)C(=O)c2c(C)n(Cc3ccc(Cl)cc3)c3ccc(O)cc23)ccn1` [Compound 2, 2-(1-(4-chlorobenzyl)-5-hydroxy-2-methyl-1H-indol-3-yl)-N-(2-methoxypyridin-4-yl)-2-oxoacetamide] was tested. Which IC50 did it give?
Answer: Its IC50 is under 100 nM.

Question: With `COc1cc(NC(=O)C(=O)c2c(C)n(Cc3ccc(Cl)cc3)c3ccc(C(C)=O)cc23)ccn1` [Compound 5, 2-(5-acetyl-1-(4-chlorobenzyl)-2-methyl-1H-indol-3-yl)-N-(2-methoxypyridin-4-yl)-2-oxoacetamide] as the molecule, how does the IC50 read?
Answer: The IC50 was under 100 nM.

Question: Which IC50 does the source give for `COc1cc(NC(=O)C(=O)c2c(C)n(Cc3ccc(Cl)cc3)c3ccc(C(=O)N(C)C)cc23)ccn1` [Compound 6, 1-(4-chlorobenzyl)-3-(2-(2-methoxypyridin-4-ylamino)-2-oxoacetyl)-N,N,2-trimethyl-1H-indole-5-carboxamide] here?
Answer: The IC50 was 100 to 1000 nM.

Question: For `COc1cc(NC(=O)C(=O)c2c(C)n(Cc3ccc(Cl)cc3)c3ccc(N(C)C(=O)OC(C)(C)C)cc23)ccn1` [Compound 7, Tert-butyl(1-(4-chlorobenzyl)-3-(2-((2-methoxypyridin-4-yl)amino)-2-oxoacetyl)-2-methyl-1H-indol-5-yl)(methyl)carbamate], which IC50 is on record?
Answer: The IC50 was 100 to 1000 nM.

Question: With `COc1cc(NC(=O)C(=O)c2c(C)n(Cc3ccc(Cl)cc3)c3ccc(CO)cc23)ccn1` [Compound 8, 2-(1-(4-chlorobenzyl)-5-(hydroxymethyl)-2-methyl-1H-indol-3-yl)-N-(2-methoxypyridin-4-yl)-2-oxoacetamide] as the molecule, how does the IC50 read?
Answer: The IC50 was under 100 nM.

Question: How did the IC50 turn out when `CNc1ccc2c(c1)c(C(=O)C(=O)Nc1ccnc(OC)c1)c(C)n2Cc1ccc(Cl)cc1` [Compound 9, 2-(1-(4-chlorobenzyl)-2-methyl-5-(methylamino)-1H-indol-3-yl)-N-(2-methoxypyridin-4-yl)-2-oxoacetamide] was run?
Answer: The IC50 was under 100 nM.

Question: `COc1cc(NC(=O)C(=O)c2c(C)n(Cc3ccc(Cl)cc3)c3ccc(COC(C)=O)cc23)ccn1` [Compound 10, (1-(4-chlorobenzyl)-3-(2-(2-methoxypyridin-4-ylamino)-2-oxoacetyl)-2-methyl-1H-indol-5-yl)methyl acetate] was tested. Which IC50 did it give?
Answer: Its IC50 is under 100 nM.

Question: How did the IC50 turn out when `COCc1ccc2c(c1)c(C(=O)C(=O)Nc1ccnc(OC)c1)c(C)n2Cc1ccc(Cl)cc1` [Compound 11, 2-(1-(4-chlorobenzyl)-5-(methoxymethyl)-2-methyl-1H-indol-3-yl)-N-(2-methoxypyridin-4-yl)-2-oxoacetamide] was run?
Answer: Its IC50 is under 100 nM.

Question: For `COc1ccc2c(c1)c(C(=O)C(=O)Nc1ccnc(OC)c1)c(C)n2Cc1cnc(Cl)cn1` [Compound 12, 2-(1-((5-chloropyrazin-2-yl)methyl)-5-methoxy-2-methyl-1H-indol-3-yl)-N-(2-methoxypyridin-4-yl)-2-oxoacetamide], which IC50 is on record?
Answer: The IC50 was under 100 nM.

Question: `COc1cc(NC(=O)C(=O)c2c(C)n(Cc3ncc(Cl)cc3Cl)c3cc(F)c(OC)cc23)ccn1` [Compound 13, 2-(1-((3,5-dichloropyridin-2-yl)methyl)-6-fluoro-5-methoxy-2-methyl-1H-indol-3-yl)-N-(2-methoxypyridin-4-yl)-2-oxoacetamide] was tested. Which IC50 did it give?
Answer: Its IC50 is under 100 nM.

Question: How did the IC50 turn out when `COc1cc(NC(=O)C(=O)c2c(C)n(Cc3ccc(F)cc3F)c3cc(F)c(OC)cc23)ccn1` [Compound 14, 2-(1-(2,4-difluorobenzyl)-6-fluoro-5-methoxy-2-methyl-1H-indol-3-yl)-N-(2-methoxypyridin-4-yl)-2-oxoacetamide] was run?
Answer: The IC50 was under 100 nM.

Question: With `COc1cc(NC(=O)C(=O)c2c(C)n(Cc3ccc(Cl)cc3)c3ccc(C#N)cc23)ccn1` [Compound 15, 2-(1-(4-chlorobenzyl)-5-cyano-2-methyl-1H-indol-3-yl)-N-(2-methoxypyridin-4-yl)-2-oxoacetamide] as the molecule, how does the IC50 read?
Answer: The IC50 was under 100 nM.

Question: With `COc1ccc2c(c1)c(C(=O)C(=O)Nc1ccnc(OC)c1)c(C)n2Cc1ccncc1` [Compound 16, 2-(5-methoxy-2-methyl-1-(pyridin-4-ylmethyl)-1H-indol-3-yl)-N-(2-methoxypyridin-4-yl)-2-oxoacetamide] as the molecule, how does the IC50 read?
Answer: Its IC50 is 100 to 1000 nM.

Question: `COc1cc(NC(=O)C(=O)c2c(C)n(Cc3ccc(Cl)cc3)c3ccc(N(C)C)cc23)ccn1` [Compound 17, 2-(1-(4-chlorobenzyl)-5-(dimethylamino)-2-methyl-1H-indol-3-yl)-N-(2-methoxypyridin-4-yl)-2-oxoacetamide] was tested. Which IC50 did it give?
Answer: The IC50 was under 100 nM.

Question: Which IC50 does the source give for `COc1cc(NC(=O)C(=O)c2c(C)n(Cc3ccc(Cl)cc3)c3ccc(Br)cc23)ccn1` [Compound 18, 2-(5-bromo-1-(4-chlorobenzyl)-2-methyl-1H-indol-3-yl)-N-(2-methoxypyridin-4-yl)-2-oxoacetamide] here?
Answer: The IC50 was under 100 nM.

Question: Which IC50 does the source give for `COc1cc(NC(=O)C(=O)c2c(C)n(Cc3ccc(Cl)cc3)c3ccc([N+](=O)[O-])cc23)ccn1` [Compound 19, 2-(1-(4-chlorobenzyl)-2-methyl-5-nitro-1H-indol-3-yl)-N-(2-methoxypyridin-4-yl)-2-oxoacetamide] here?
Answer: Its IC50 is under 100 nM.

Question: Which IC50 does the source give for `COc1cc(NC(=O)C(=O)c2c(C)n(Cc3ccc(Cl)cc3)c3ccc(N)cc23)ccn1` [Compound 20, 2-(5-amino-1-(4-chlorobenzyl)-2-methyl-1H-indol-3-yl)-N-(2-methoxypyridin-4-yl)-2-oxoacetamide] here?
Answer: The IC50 was under 100 nM.

Question: For `COc1cc(NC(=O)C(=O)c2c(C)n(Cc3ccc(Cl)cc3)c3ccc(C(F)(F)F)cc23)ccn1` [Compound 21, 2-(1-(4-chlorobenzyl)-2-methyl-5-(trifluoromethyl)-1H-indol-3-yl)-N-(2-methoxypyridin-4-yl)-2-oxoacetamide], which IC50 is on record?
Answer: Its IC50 is under 100 nM.

Question: `COc1cc(NC(=O)C(=O)c2c(C)n(Cc3ccc(Cl)cc3)c3ccc(NC(C)=O)cc23)ccn1` [Compound 22, 2-(5-acetamido-1-(4-chlorobenzyl)-2-methyl-1H-indol-3-yl)-N-(2-methoxypyridin-4-yl)-2-oxoacetamide] was tested. Which IC50 did it give?
Answer: Its IC50 is 100 to 1000 nM.

Question: Which IC50 does the source give for `COc1cc(NC(=O)C(=O)c2c(C)n(Cc3ccc(Cl)cc3)c3ccc(OC(F)(F)F)cc23)ccn1` [Compound 23, 2-(1-(4-chlorobenzyl)-2-methyl-5-(trifluoromethoxy)-1H-indol-3-yl)-N-(2-methoxypyridin-4-yl)-2-oxoacetamide] here?
Answer: Its IC50 is under 100 nM.

Question: Which IC50 does the source give for `CCN(CC)c1ccc2c(c1)c(C(=O)C(=O)Nc1ccnc(OC)c1)c(C)n2Cc1ccc(Cl)cc1` [Compound 24, 2-(1-(4-chlorobenzyl)-5-(diethylamino)-2-methyl-1H-indol-3-yl)-N-(2-methoxypyridin-4-yl)-2-oxoacetamide] here?
Answer: Its IC50 is 100 to 1000 nM.
